Read-outs that look alike come from different tables or passages of the source.
Columns and labels:
MCL1/Bim = MCL1/Bim (Homo sapiens (Human), UniProt Q07820); experiment: MCL1/Bim Binding AlphaLISA Assay; details: recombinant human 6xHis-MCL1 (171-327), biotinylated Bim peptide (51-76)
Procedure: MCL1/Bim Binding AlphaLISA Assay.
Inhibition of the MCL1 and Bim interaction was measured in the following AlphaLISA assay.
Recombinant human MCL1 protein (C-terminal 6×His Tagged MCL1 containing residues 171-327) was generated at Gilead Sciences, Inc. (Foster City, Calif.). A biotinylated peptide derived from human Bim (residues 51-76) was purchased from CPC Scientific (Sunnyvale, Calif.). (CPC 834113). AlphaLISA anti-6His- acceptor beads (AL128R), AlphaScreen Streptavidin donor beads (6760002B), and Proxiplate-384 Plus (6008289) were purchased from PerkinElmer.
The AlphaLISA assay was performed in a 384-well Proxiplate in a total volume of […]. The reaction mixture contained 0.0625 nM 6×His-MCL1 (171-327), 0.0625 nM biotinylated-Bim peptide, 10 μg/mL AlphaLISA anti-6×His-AlphaLISA acceptor beads, 40 μg/mL AlphaScreen streptavidin donor beads, and serially diluted test compounds in the binding buffer (20 mM Hepes, pH 7.5 (Teknova H1035); 150 mM NaCl (Promega V4221); 0.002% Brij 35 (Thermo Scientific 20150); 1 mM Dithiothreitol (DTT) Solution (Affymetrix 70726); 0.01% BSA (BioLabs B9000S)). 1,000× test compounds were pre-spotted onto 384-well Proxiplate (Labcyte Echo) by Echo 555 Liquid Handler (Labcyte Inc., San Jose, Calif.) followed by incubation of 5 μL MCL1(171-327) for 1 hour. Then 5 μL Bim (51-76) was added and incubated for 2 hours. Five μL AlphaLISA anti-6His-AlphaLISA acceptor beads were then added for 1 hour followed by addition of 5 μL AlphaScreen streptavidin donor beads for 1 hour. The reaction plates were then read on an Envision multimode reader (PerkinElmer) using AlphaScreen settings. Percent inhibition was calculated as shown below: % Inhibition=100%*(Well−Neg)/(Pos−Neg) Neg: negative control, DMSO Pos: positive control, no MCL1 protein, no biotinylated-Bim peptide

SKBR3 cells = experiment: SKBR3 Cell Viability Assay; assay type: cell-based; details: CellTiter Glo, read-out: MCL1 CV SKBR3 EC50
Procedure: SKBR3 Cell Viability Assay Materials
SKBR3 Cells (ATCC HTB-30) were obtained from ATCC (Manassas, Va.) and cultured in McCoy 5A's medium (ATCC 30-2007)+10% fetal bovine serum (SH30071.03, HyClone, Pittsburgh, Pa.) plus 1× Penicillin-Streptomycin L-glutamine (Corning 30-009-CI, Corning, N.Y.).
The cell viability assay was conducted in a 384-well tissue culture plate (Grenier 781086, Monroe, N.C.) in a total volume of 70 μL. Test compounds were prepared in 1,000×, serially diluted, and pre-spotted into 384-well tissue culture plate by Echo 555 Liquid Handler (Labcyte Inc., San Jose, Calif.). Seventy μL of 6,000 SKBR3 cells were dispensed into each well of the plate and incubated at 37° C. with 5% CO2 for 72 hours. At the end of incubation, 2× CellTiter Glo (CTG) reagents (1 part buffer with 2 parts substrate) (Promega, Madison, Wis.) were prepared, and the plate and the reagent were equilibrated to room temperature for 30 minutes. CTG reagent was added to each plate by Biomek FX at 20 μL/well with 5 times pipetting and mixing to induce cell lysis. Luminescence was read by Envision multimode reader (PerkinElmer). Percent inhibition was calculated as followed: % Inhibition=100%*(Well−Neg)/(Pos−Neg) Neg, negative control, DMSO Pos, positive control, 10 μM Puromycin

[1] = Homo sapiens, SK-BR-3, 72 hours

MCL1/Bim, sequence (Q07820 171-327): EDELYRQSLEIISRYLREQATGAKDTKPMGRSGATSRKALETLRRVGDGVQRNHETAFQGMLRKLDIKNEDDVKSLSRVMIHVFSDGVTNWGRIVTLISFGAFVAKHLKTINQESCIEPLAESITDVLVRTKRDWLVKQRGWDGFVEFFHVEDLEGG

| Compound | IC50 (MCL1/Bim) [nM] | EC50 (SKBR3 cells; [1]) [nM] | EC50 (SKBR3 cells; 72 hours) [nM] |
| --- | --- | --- | --- |
| COC1CC(C(=O)N[S@@]2(=O)=NC(=O)c3ccc4c(n3)N(C[C@@H]3CC[C@H]3[C@@H](OC)/C=C/C[C@H](C)C2)C[C@@]2(CCCc3cc(Cl)ccc32)CO4)C1 (stereo partly drawn) [Example 195] | 0.05 | 23.8 |  |
| CO[C@H]1/C=C/C[C@H](C)C[S@@](=O)(NC(=O)c2cn(C)nc2N2CCN(C3COC3)CC2)=NC(=O)c2ccc3c(c2)N(C[C@@H]2CC[C@H]21)C[C@@]1(CCCc2cc(Cl)ccc21)CO3 [Example 24] | 0.026 | 10.3 |  |
| COc1nn(C)cc1C(=O)N[S@@]1(=O)=NC(=O)c2ccc3c(c2)N(C[C@@H]2CC[C@H]2[C@@](O)(CC(=O)N2CCN4CCOCC4C2)/C=C/C[C@H](C)C1)C[C@@]1(CCCc2cc(Cl)ccc21)CO3 (stereo partly drawn) [Example 102] | 0.026 |  | 16.1 |
| CCO/C1=C/C[C@H](OC)[C@@H]2CC[C@H]2CN2C[C@@]3(CCCc4cc(Cl)ccc43)COc3ccc(cc32)C(=O)N=[S@](=O)(NC(=O)c2cn(C)nc2OC)[C@H](C)[C@H]1C [Example 158] | 3.86 |  | 1950 |
| CC[C@@H]1CC/C=C/[C@H](OC)[C@@H]2CC[C@H]2CN2C[C@@]3(CCCc4cc(Cl)ccc43)COc3ccc(cc32)C(=O)/[N+]([O-])=[S@]\1NC(=O)c1cn(C)nc1OC [Example 41] | 0.146 |  | 126 |
| Cn1nccc1CCC(=O)NS1(=O)=NC(=O)c2ccc3c(c2)N(C[C@@H]2CC[C@H]2[C@@H](OCCN2CCOCC2)/C=C/CCC1)C[C@@]1(CCCc2cc(Cl)ccc21)CO3 (stereo partly drawn) [Example 49] | 0.194 |  | 525 |
| COc1nn(C)cc1C(=O)N[S@@]1(=O)=NC(=O)c2ccc3c(c2)N(C[C@@H]2CC[C@H]2[C@@H](OC)/C=C/[C@@](C)(OC)[C@H](C)C1)C[C@@]1(CCCc2cc(Cl)ccc21)CO3 [Example 122] | 0.03 | 17.7 |  |
| COc1nn(C)cc1C(=O)N[S@@]1(=O)=NC(=O)c2ccc3c(c2)N(C[C@@H]2CC[C@H]2[C@@](CN2CCN4CCOC[C@@H]4C2)(OC)/C=C/C[C@H](C)C1)C[C@@]1(CCCc2cc(Cl)ccc21)CO3 [Example 112] | 0.086 | 10.4 |  |
| COc1nn(C)cc1C(=O)N[S@@]1(=O)=NC(=O)c2ccc3c(c2)N(C[C@@H]2CC[C@H]2[C@@H](OC)/C=C/[C@](C)(OC)[C@H](C)C1)C[C@@]1(CCCc2cc(Cl)ccc21)CO3 [Example 123] | 0.135 | 69.7 |  |
| COc1nn(C)cc1C(=O)N[S@@]1(=O)=NC(=O)c2ccc3c(c2)N(C[C@@H]2CC[C@H]2[C@@H](OC)C#CC[C@H](C)C1)C[C@@]1(CCCc2cc(Cl)ccc21)CO3 [Example 37] | 0.04 | 57.7 |  |
| COc1nn(C)cc1C(=O)N[S@@]1(=O)=NC(=O)c2ccc3c(c2)N(C[C@@H]2CC[C@H]2[C@H](OC)/C=C/[C@@](C)(O)[C@H](C)C1)C[C@@]1(CCCc2cc(Cl)ccc21)CO3 [Example 121] | 0.047 |  | 67.9 |
| COc1nn(C)cc1C(=O)N[S@@]1(=O)=NC(=O)c2ccc3c(c2)N(C[C@@H]2CC[C@H]2[C@@H](OC(=O)CCC2CCOCC2)/C=C/C[C@H](C)C1)C[C@@]1(CCCc2cc(Cl)ccc21)CO3 [Example 56] | 0.16 | 93.6 |  |
| COc1nn(C)cc1C(=O)N[S@@]1(=O)=NC(=O)c2ccc3c(c2F)N(C[C@@H]2CC[C@H]2C(OC)/C=C/[C@H](OC)[C@H](C)C1)C[C@@]1(CCCc2cc(Cl)ccc21)CO3 (stereo partly drawn) [Example 162] | 0.053 | 27.7 |  |
| COc1nn(C)cc1C(=O)N[S@@]1(=O)=NC(=O)c2ccc3c(c2)N(C[C@@H]2CC[C@H]2[C@@H](OC)C[C@H]2CCO[C@@H]2[C@H](C)[C@H]1C)C[C@@]1(CCCc2cc(Cl)ccc21)CO3 [Example 159] | 0.689 |  | 381 |
| COCC(=O)O[C@H]1/C=C/[C@H](OC)[C@@H]2CC[C@H]2CN2C[C@@]3(CCCc4cc(Cl)ccc43)COc3ccc(cc32)C(=O)N=[S@](=O)(NC(=O)c2cn(C)nc2OC)C[C@H]1C [Example 73] | 0.047 | 13.8 |  |

Source: patent publication US11667652B2, “MCL1 inhibitors” (Gilead Sciences, Inc., priority 2019, dated 2023)
